Measured values from US9453226B2, “Protection of cells from Alu-RNA-induced degeneration and inhibitors for protecting cells” (UNIVERSITY OF KENTUCKY RESEARCH FOUNDATION, priority 2011, dated 2016).
Entries after “also recorded” stand apart in the source; their conditions may differ. d = 2'-deoxy (DNA); r = 2'-OH (RNA)

Experiments:
VDAC3 = VDAC3 mRNA knockdown in human RPE cells; type: cell-based; settings: compared to control (Luc) siRNA
Excerpt: (§1) Total RNA was extracted from tissues or cells using Trizol reagent (Invitrogen) according to manufacturer's recommendations, DNase treated and reverse transcribed (QuantiTect, Qiagen). The RT products (cDNA) were amplified by real-time quantitative PCR (Applied Biosystems 7900 HT Fast Real-Time PCR system) with Power SYBR green Master Mix. Oligonucleotide primers specific for human IL1B (forward 5′-[…]-3′ and reverse 5′-[…]-3′), human IL18 (forward 5′-[…]-3′ and reverse 5′-[…]-3′), human NLRP3 (forward 5′-[…]-3′ and reverse 5′-[…]-3′), human PYCARD (forward 5′-[…]-3′ and reverse 5′-[…]-3′), human VDAC1 (forward 5′-[…]-3′ and reverse 5′-[…]-3′), human VDAC2 (forward 5′-[…]-3′ and reverse 5′-[…]-3′), human VDAC3 (forward 5′-[…]-3′ and reverse 5′-[…]-3′), human 18S rRNA (forward 5′-[…]-3′ and reverse 5′-[…]-3′), mouse Myd88 (forward 5′-[…]-3′ and reverse 5′-[…]-3′), mouse Nlrp3 (forward 5′-[…]-3′ and reverse 5′-[…]-3′), mouse Il18 (forward 5′-[…]-3′ and reverse 5′-[…]-3′), and mouse 18S rRNA (forward 5′-[…]-3′ and reverse 5′-[…]-3′) were used. […] For negative controls, no RT products were used as templates in the QPCR and verified by the absence of gel-detected bands. Relative expressions of target genes were determined by the 2^−ΔΔCt method.

human RPE cells = human RPE cells transfected with pAlu
Experimental: All cell cultures were maintained at 37° C. and 5% CO2. Primary mouse RPE cells were isolated as previously described (Yang et al., 2009) and grown in Dulbecco Modified Eagle Medium (DMEM) supplemented with 20% FBS and standard antibiotics concentrations. Primary human RPE cells were isolated as previously described (Yang et al., 2008) and maintained in DMEM supplemented with 10% FBS and antibiotics. HeLa cells were maintained in DMEM supplemented with 20% FBS and standard antibiotics concentrations. THP-1 cells were cultured in RPMI 1640 medium supplemented with 10% FBS and antibiotics.
MTS assays were performed using the CellTiter 96 AQueous One Solution Cell Proliferation Assay (Promega) according to the manufacturer's instructions. For examining the cytoprotective effect of glycine in Alu RNA induced cell death, human RPE cells were transfected with pNull/pAlu. At 6 h post-transfection the cells were incubated with complete media containing glycine (5 mM) or vehicle, and cell viability was assessed after 24 h. Similarly, human RPE cells primed with LPS (5 μg/ml for 6 h) were treated with ATP (25 μM) in the presence of glycine containing media (5 mM). 30 min post ATP cell viability was assessed as described above.
MTS assays were performed using the CellTiter 96 AQueous One Solution Cell Proliferation Assay (Promega) according to the manufacturer's instructions.

PYCARD = PYCARD knockdown in human RPE cells; type: cell-based; settings: compared to control siRNAs
Experimental: (§2) Tissues or cells were homogenized in lysis buffer (10 mM Tris base, pH 7.4, 150 mM NaCl, 1 mM EDTA, 1 mM EGTA, 1% Triton X-100, 0.5% NP-40, protease and phosphatase inhibitor cocktail (Roche)). Protein concentrations were determined using a Bradford assay kit (Bio-Rad) with bovine serum albumin as a standard. Proteins (40-100 μg) were run on NuPAGE Bis-Tris gels (Invitrogen) and transferred to Immun-Blot PVDF membranes (Bio-Rad). Cells were scraped in hot Laemmli buffer (62.5 mM Tris base, pH 6.8, 2% SDS, 5% 2-Mercaptoethanol, 10% Glycerol, 0.01% Bromophenol Blue). Samples were boiled and run on 4-20% NuPAGE Tris-Glycine gels (Invitrogen). The transferred membranes were blocked for 1 h at RT and incubated with antibodies against human Caspase-1 (1:500; Invitrogen), mouse Caspase 1 (1:500; MBL), NLRP3 (1:1000; Enzo Life Sciences), PYCARD (1:1000, RayBiotech), phospho-IRAK1 (S376) (1:500, Thermo Scientific), phospho-IRAK4 (T345) (1:500, AbboMax), DICER1 (1:2,000; Bethyl), MyD88 (1:1,000; Cell Signaling), and mouse IL-18 (1:200; MBL) at 4° C. overnight. Protein loading was assessed by immunoblotting using an anti-Vinculin antibody (1:1,000; Sigma-Aldrich). The secondary antibodies were used (1:5,000) for 1 h at RT. The signal was visualized by enhanced chemiluminescence (ECL plus) and captured by VisionWorksLS Image Acquisition and Analysis software (Version 6.7.2, UVP, LLC).

RPE = test: Alu RNA-induced RPE degeneration in wild-type mice, inhibitors given intravitreously; type: in vivo; settings: subretinal Alu RNA 1 μg; peptide 2 μg intravitreous
IRAK1/4 phosphorylation = IRAK1/4 phosphorylation in human RPE cells (Western blot); type: cell-based; settings: human RPE cells treated with DICER1 antisense
Experimental: (§3) Protein abundance was assessed by Western blot analysis using antibodies against Caspase-1 (1:500; Invitrogen), pIRAK1 (1:500; Thermo Scientific), pIRAK4 (1:500, Abbomax), PYCARD (1:200, Santa Cruz Biotechnology), NLRP3 (1:500, Enzo Life Sciences) and Vinculin (1:1,000; Sigma-Aldrich). Caspase-1 activity was visualized using Caspalux1 E1D2 (Oncolmmunin) according to manufacturer's instructions.
as §2

Caspase-1 = target: T1, Caspase-1 (Homo sapiens, UniProt P29466); test: Caspase-1 activation in human RPE cells (Western blot p20, Caspalux substrate cleavage); type: cell-based; settings: compared to control AS
T1 construct: Primary human RPE cells were isolated as previously described; endogenous in cells; host or cells: primary human RPE cells
T1 sequence (P29466 120-297 limits assumed): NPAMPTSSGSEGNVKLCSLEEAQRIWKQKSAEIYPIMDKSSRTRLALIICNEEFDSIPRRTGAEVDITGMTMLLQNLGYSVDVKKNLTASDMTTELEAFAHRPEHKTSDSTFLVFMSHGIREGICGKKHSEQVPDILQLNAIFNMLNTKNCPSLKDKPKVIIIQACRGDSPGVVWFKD
T1 sequence (P29466 317-404 limits assumed): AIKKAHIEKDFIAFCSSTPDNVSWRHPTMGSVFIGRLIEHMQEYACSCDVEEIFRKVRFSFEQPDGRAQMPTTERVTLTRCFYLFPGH
Experimental: as §3, §2
Caspase-1 activity. Caspase-1 activity was visualized by incubating cells with Caspalux1E1D2 reagent (Oncolmmunin) according to the manufacturer's instructions. Caspalux1E1D2 signal was quantified reading the fluorescence (excitation 552 nm, emission 580 nm) using a Synergy 4 reader (Biotek). Quantification of fluorescence from images was performed by converting images into grayscale in Adobe Photoshop CSS, and measuring the integrated density of black and white images using ImageJ software (NIH) (Bogdanovich et al., 2008).

DICER1 = DICER1 abundance after antisense treatment of human RPE cells; type: cell-based
Experimental: as §2

NLRP3 and IL18 mRNAs = test: NLRP3 and IL18 mRNA in human RPE cells (real-time RT-PCR); type: cell-based
Excerpt: Transcript abundance was quantified by real-time RT-PCR using an Applied Biosystems 7900 HT Fast Real-Time PCR system by the 2^−ΔΔCt method.
as §1, with “used. The QPCR cycling conditions were 50° C. for 2 min, 95° C. for 10 min followed by 40 cycles of a two-step amplification program (95° C. for 15 s and 58° C. for 1 min). At the end of the amplification, melting curve analysis was applied using the dissociation protocol from the Sequence Detection system to exclude contamination with unspecific PCR products.” for “used.”

mitochondrial ROS = test: Mitochondrial ROS in human RPE cells (MitoSOX Red); type: cell-based
Experimental: Cellular ROS production was assessed using the ROS-specific probe 2′7′-dichlorodihydrofluorescin diacetate (H2DCFDA, BioChemica, Fluka). Mitochondrial ROS production was assessed using MitoSOX™ Red (Invitrogen). Sub-confluent human RPE cells were transfected with pNull or pAlu. After 24 h cells were loaded for 10 min at 37° C. with 10 μM H2DCFDA or MitoSOX™ Red (Invitrogen) mitochondrial superoxide indicator for live-cell imaging and washed twice with PBS. For H2DCFDA, fluorescence was recorded in 96-well plate using with a Synergy 4 reader (Biotek) using a FITC filter (excitation 485 nm, emission 538 nm). To visualize respiring mitochondria for colocalization with the mitochondrial ROS signal, after PBS wash cells were incubated with MitoTracker Deep Red™ (Invitrogen) for 30 min at 37° C. and then washed twice with PBS. The fluorescent signals were detected using Leica SP-5 or Zeiss Axio Observer Z1 microscopes. Phagosomal ROS production was assessed using the Fc-OXYBURST Green™ assay (Invitrogen). Sub-confluent human RPE cells were transfected with pNull or pAlu, or treated with PMA (0.5 μg/ml; Sigma-Aldrich). […] The total fluorescence from the cells was measured immediately after adding Fc-OXYBURST Green™ with a Synergy 4 reader (Biotek) using FITC filter (excitation 485 nm, emission 538 nm).

VDAC1 = VDAC1 mRNA knockdown in human RPE cells; type: cell-based; settings: compared to control (Luc) siRNA
Excerpt: as §1

NLRP3 = NLRP3 knockdown in HEK293 cells transfected with an NLRP3 expression vector; type: cell-based; settings: compared to control siRNAs
Experimental: as §2

VDAC2 = VDAC2 mRNA knockdown in human RPE cells; type: cell-based; settings: compared to control (Luc) siRNA
Excerpt: as §1

## 5′-GCUUUAAUCGAUGGGAAdTdT-3′ [VDAC3 siRNA]
VDAC3
  abundance of VDAC3 mRNA: reduced

## 5′-GAAGCUCUUCAGUUUCAdTdT-3′ (GAAGCUCUUCAGUUUCATT; siRNA; sugars from the 5' end r17 d2, backbone not given here) [PYCARD siRNA]
Human RPE cells
  pAlu-induced human RPE cell death / loss of cell viability: rescued
PYCARD
  abundance of PYCARD: reduced

## DRQIKIWFQNRRMKWKKRDVLPGTCVWSIASE
RPE
  Alu RNA-induced RPE degeneration: blocked

## 5′-GCUGACCTTTTTGCTUCUCA-3′ [DICER1 AS]
IRAK1/4 phosphorylation
  IRAK1 and IRAK4 phosphorylation: increases IRAK1 and IRAK4 phosphorylation
Caspase-1
  cleavage activity of Caspase-1 (Caspalux): increases cleavage activity of Caspase-1
DICER1
  DICER1 abundance: reduces DICER1

## 5′-CGGAAUAGCAGCCAAGUdTdT-3′ [VDAC1 siRNA]
NLRP3 and IL18 mRNAs
  pAlu-induced NLRP3 and IL18 mRNA upregulation: prevent; also recorded: impaired
Mitochondrial ROS
  pAlu-induced mitochondrial ROS generation: prevent; also recorded: impaired
VDAC1
  abundance of VDAC1 mRNA: reduced

## 5′-GUUUGACUAUCUGUUCUdTdT-3′ (GUUUGACUAUCUGUUCUTT; siRNA; sugars from the 5' end r17 d2, backbone not given here) [NLRP3 siRNA]
Human RPE cells
  pAlu-induced human RPE cell death / loss of cell viability: rescued
NLRP3
  abundance of NLRP3: reduced

## 5′-CCCUGGAGUUGGAGGCUdTdT-3′ [VDAC2 siRNA]
NLRP3 and IL18 mRNAs
  pAlu-induced NLRP3 and IL18 mRNA upregulation: prevent; also recorded: impaired
Mitochondrial ROS
  pAlu-induced mitochondrial ROS generation: prevent; also recorded: impaired
VDAC2
  abundance of VDAC2 mRNA: reduced
